Test results as given in patent US12065420B2, “Uses of balaenone and method of extraction thereof” (HARDIE HEALTH LIMITED, priority 2018, dated 2024).

Experiments:
Staphylococcus aureus = experiment: TLC bioautography antibacterial assay, S. aureus; format: cell-based; details: qualitative
Experimental: (§1) The crude (1st methanolic) extract of M. latifolia bark and five chromatographic fractions obtained using the purification process outlined in Example 1 were submitted for TLC bioautography studies for qualitative determination of antibacterial activity.
(§2) Briefly, a reference plate was prepared by loading the samples on a silica gel TLC plate which was developed using an established solvent system (10% ethyl acetate in petroleum ether) to separate their components based on polarity. The developed plates were then visualised using 5% v/v sulfuric acid in methanol+0.1% w/v vanillin in ethanol, followed by heat. Using this method, Balaenone was distinguished as a bright pink to red spot (see FIG. 7).
(§3) Multiple copies of this plate were then prepared and developed using the same solvent system, but instead are visualised by pouring agar inoculated/spiked with one of the following micro-organisms (see below) and allowed to incubate before visualisation with a reduction dye.

[1] = test system: Staphylococcus epidermidis; experiment: TLC bioautography antibacterial assay, S. epidermidis; format: cell-based; details: qualitative
Experimental: as §1, §2, §3

[2] = Storage stability of Balaenone; format: physicochemical; details: away from light and oxygen
From the text: Final purification of trans-Balaenone on silica gel separated it from an oxygenated aromatic compound, subsequently identified as halifordin (8). Without being bound by theory, it is believed that degradation is due to the presence of halifordin (8), which is also present in the methanol extract of M. latifolia.
In a separate experiment, purified trans-Balaenone was photochemically reacted with atmospheric oxygen in the presence of Rose Bengal (another known photogenerator of singlet oxygen), which generated 7b among other oxidation products.
Removal of halifordin (8) from the extract provides a purified composition of trans-Balaenone in which trans-Balaenone is stable at room temperature, when stored away from light and oxygen. It is believed that the same process would occur with respect to cis-Balaenone.

Row | stability on storage ([2]; cool temperatures) | stability on storage ([2]; room temperature, in the absence of halifordin (8)) | Structure (SMILES) | antibacterial activity (zones of inhibition) (Staphylococcus aureus) | antibacterial activity (zones of inhibition) [1]
1 |  |  | CC1=C2c3c(C)coc3CCC(C)C2CC1=O (stereo not shown) [Balaenone] | zones of inhibition | zones of inhibition
2 | quite stable | essentially stable | CC1=C2c3c(C)coc3CC[C@H](C)[C@H]2CC1=O [trans-Balaenone, (6S,6aR)-1,6,9-trimethyl-5,6,6a,7-tetrahydroazuleno[5,4-b]furan-8(4H)-one] |  | 
